Source: patent US10597398B2, “Suppression and regeneration promoting effect of low molecular weight compound on cancer and fibrosis” (NATIONAL UNIVERSITY CORPORATION TOTTORI UNIVERSITY, priority 2015, dated 2020)

Assays:
Assay type in all cases: cell-based, human
LX-2 cells = assay: Anti-fibrosis effect, summary statements on Example 3 (marker not specified)
Excerpt: α-Smooth muscle actin (α-SMA), a fibrosis marker, was used as an indicator, and RNA was collected from LX-2 cells treated with each low-molecular-weight compound. Next, an inhibitory effect on fibrosis was examined by real-time RT-PCR.
In addition, instead of α-SMA, another fibrosis marker collagen, type I, alpha 1 (COL1A1) was used as an indicator, and substantially the same protocol was repeated. The concentrations of each compound used were as described in FIG. 34. Each control sample used was 0.1% DMSO, a solvent for each compound. Here, COL1A1 primers used were 5′-CCT CCA GGG CTC CAA CGA G-3′ and 5′-TCAATCACTGTCTTGCCCCA-3′. The annealing was performed at 58° C. for 5 sec. The measurement results were obtained by dividing the calculated value for the COL1A1 gene by the calculated value for the GAPDH gene.

mesenchymal stem cell = assay: Hepatocyte differentiation-inducing effect, summary statements on Example 4 (readout not specified)
Excerpt: Albumin, a hepatocyte marker, was used as an indicator, and RNA was collected from cells treated with each compound. Next, a hepatocyte differentiation-inducing effect was examined by real-time RT-PCR. The concentrations of the respective compounds were as described in FIG. 35. Each control sample used was 0.1% DMSO, a solvent for each compound.
By using urea synthesis, a hepatocyte function, as an indicator, a hepatocyte differentiation-inducing effect of each compound was investigated.
The cells treated with each compound were subjected to immunofluorescence analysis of albumin, a hepatocyte marker, to investigate a hepatocyte differentiation-inducing effect. The concentrations of the respective compounds were as described in FIG. 37. Each control sample used was 0.1% DMSO, a solvent for each compound.
By using glycogen synthesis, a hepatocyte function, as an indicator, a hepatocyte differentiation-inducing effect of each compound was investigated.

HuH-7 cells = assay: Growth inhibitory effect on cancer cells (WST assay), Example 2.3; conditions: for IC50: HuH-7 cells, WST assay, concentrations 0-50 μM, control 0.1% DMSO; for IC50 compared with IC-2: comparison with IC-2
Method: HuH-7 cells, a human liver cancer cell line, were cultured on 10-cm cell culture dishes (TPP Techno Plastic Products AG, Trasadingen, Switzerland) by using DMEM under conditions at 5% CO2, 37° C., and 100% humidity. When the cells were 70 to 90% confluent, 200 μL of 0.25% Trypsin/1 mM EDTA solution, which had been prepared by diluting the stock solution 10-fold with PBS (−), was added to detach the cells. Then, the cells were centrifuged at 1000 rpm for 3 min at room temperature. The cells recovered were subcultured at a 1:4 split ratio.
First, 70 to 90% confluent HuH-7 cells were harvested and seeded (n=3) at 5×10^3 cells/well of a 96-well plate (TPP). After 24 h, each compound was added to the cells and the mixture was cultured at 37° C. The concentrations of each compound were 0, 10, 20, 30, 40, and 50 μM. For IC-2-506-1, however, the concentrations used were 0, 10, 20, 25, 30, 40, and 50 μM. Each control sample (0 μM) used was 0.1% DMSO, a solvent for each compound.
Next, 0, 24, 48, and 96 h after the compound treatment, 100 μIL of DMEM-diluted 10% Cell Counting Kit-8 (DOJINDO LABORATORIES, Kumamoto) was added. The mixture was incubated at 37° C. for 60 min and its absorbance (at a measurement wavelength of 450 nm/control wavelength of 600 nm) was measured by using a Sunrise Rainbow RC (Tecan Group Ltd., Mannedorf, Switzerland). Absorbance for the cells alone was calculated by subtracting, from the reading obtained, absorbance for 10% Cell Counting Kit-8 alone.
The “*” in figures indicates a significant difference of p<0.05 between 0.1% DMSO and each compound; and the “**” indicates a significant difference of p<0.01 (the same applies to all the figures in Examples).

Wnt/β-catenin signaling [1] = assay: Inhibitory effect on Wnt/β-catenin signaling in liver stellate cells (LX-2, TCF4 luciferase); conditions: concentration equal to or lower than that of IC-2
Method: While each compound was added at concentrations where the cell growth of fibrosis-causing liver stellate LX-2 cells was reduced to about 50 to 80%, Wnt/β-catenin signaling activity was measured. […] The concentrations of the respective compounds were as described in FIG. 41. Each control sample used was 0.1% DMSO, a solvent for each compound.
LX-2 cells, which were cultured and maintained by using 10% FBS/DMEM, were harvested and seeded (n=3) in 1% FBS/DMEM at 4.0×10^4 cells per well of a 24-well plate. Next, 25 μL of Opti-MEM (Gibco, Life Technologies Corp., Carlsbad, Calif.) containing 50 ng of pTCF4-CMVpro-GL4.20, having 3 copies of TCF motifs (CCT TTG ATC) upstream of a CMV promoter in a multiple cloning site of pGL4.20 (Promega), and 5 ng of pRL-CMV Vector (Promega) and 25 μL of Opti-MEM containing 0.4 μL of Lipofectamine 2000 (Invitrogen, Life Technologies Corp., Carlsbad, Calif.) were mixed and incubated at room temperature for 20 min. At 20 h after the cell seeding, the mixture was added to each well, so that both reporter plasmids were transiently transfected into the cells. After additional 4 h, 2.5 ng/mL of TGF-β and each compound were added to the cells and the mixture was cultured at 37° C.
At 24 and 48 h after the compound treatment, the culture medium was discarded, and 100 μL of room temperature 5×Passive Lysis Buffer (PLB), which had been diluted 5-fold with MilliQ water, was added to each well. Next, the plate was shaken at room temperature for 15 min and was then frozen at −30° C. overnight. A Luciferase Assay Substrate was diluted with 10 mL of room temperature Luciferase Assay Buffer II to prepare Luciferase Assay Reagent II (LARII). Then, 1 μL of Stop&Glo Substrate was diluted with 49 μL of room temperature Stop&Glo Buffer to prepare Stop&Glo (Promega) in a quantity enough for samples.
The frozen PLB lysate samples were thawed and permeabilized for 15 min. After that, 50 μl aliquots of LARII were dispensed into 3.5 mL test tubes (Sarstedt, AG & Co., Numbrecht, Germany) and 10 μL of each frozen PLB lysate sample was added and mixed well. Subsequently, luminescence was quantified by using a MiniLumat LB 9506 (Berthold Technologies GmbH & Co, Bad Wildbad, Germany) to measure firefly luciferase activity. After the measurement, 50 μL of Stop&Glo was added and mixed well and luminescence was then quantified by using the MiniLumat LB 9506 to determine Renilla luciferase activity. The measurement results were obtained by dividing the firefly luciferase activity by the Renilla luciferase activity.

Wnt/β-catenin signaling [2] = assay: Inhibitory effect on Wnt/β-catenin signaling in liver cancer cells (HuH7-TCF4 luciferase); conditions: concentration equal to or lower than that of IC-2
Method: A pTCF4-CMVpro-GL4.20 plasmid vector, which had been constructed by inserting 3 copies of TCF4 motifs (CCT TTG ATC) upstream of a CMV promoter into a multiple cloning site of pGL4.20 (Promega Corp., Fitchburg, Wis.), was linearized and stably transfected into the HuH-7 cells. The resulting stable cells (HuH7-TCF4 cells) and HuH-7 cells were likewise cultured.
While each compound was added at concentrations where the growth of HuH-7 cells was reduced to about 50% or less, Wnt/β-catenin signaling activity was measured. The concentrations of the respective compounds were as described in FIG. 40. Control samples used were 0.1% DMSO, a solvent for each compound, and 0.5 μM 5-FU.
First, 70 to 90% confluent HuH7-TCF4 cells were harvested and seeded (n=3) at 5.0×10^4 cells/well of a 24-well plate (TPP). After 24 h, each compound was added to the cells and the mixture was cultured at 37° C.
At 48 h after the compound treatment, the culture medium was discarded, and 100 μL of room temperature 5×Passive Lysis Buffer (PLB) (Promega Corp., Fitchburg, Wis.), which had been diluted 5-fold with MilliQ water, was added to each well. Next, the plate was shaken at room temperature for 15 min and was then frozen at −30° C. overnight. A Luciferase Assay Substrate was diluted with 10 mL of room temperature Luciferase Assay Buffer II to prepare Luciferase Assay Reagent II (LARII) (Promega). The frozen PLB lysate samples were thawed and permeabilized for 15 min. Then, 10 μL aliquots were added to wells of a 96-well white plate (Corning Inc., Corning, N.Y.). While 50 μL aliquots of LARII were each added to each well, luminescence was quantified by using a 1420 multi-label counter ARVO MX (PerkinElmer Singapore Pte Ltd., Singapore) to determine firefly luciferase activity. Note that a significant difference was evaluated by using (two-tailed) Student's t-test. The “*” in figures indicates a significant difference of p<0.05 between 0.1% DMSO and each compound; and the “**” indicates a significant difference of p<0.01 (the same applies to all the figures in Examples).

SMILES	anti-fibrosis effect compared with IC-2, equal or higher concentration (LX-2 cells; concentration equal to or higher than that of IC-2)	hepatocyte-inducing effect compared with IC-2 (mesenchymal stem cell; concentration higher than that of IC-2)	IC50 (HuH-7 cells) [µM]	IC50 compared with IC-2 (HuH-7 cells)	inhibitory effect on Wnt/β-catenin signaling pathway in liver stellate cells compared with IC-2 (Wnt/β-catenin signaling [1])	anti-fibrosis effect compared with IC-2, lower concentration (LX-2 cells; concentration even lower than that of IC-2)	hepatocyte-inducing effect at low concentration (mesenchymal stem cell; low concentration)	anti-tumor effect compared with IC-2 (HuH-7 cells; at a concentration lower than that of IC-2)	inhibitory effect on Wnt/β-catenin signaling pathway in liver cancer cells compared with IC-2 (Wnt/β-catenin signaling [2])
O=C1C(Cc2ccccc2)N2C(=O)CCN(C(=O)NCc3ccccc3)C2CN1Cc1ccc(Cl)cc1Cl (stereo not drawn) [IC-2-506-2]	more potent anti-fibrosis effect	more potent hepatocyte-inducing effect	25.6	lower IC50 than IC-2	more potent inhibitory effect				
O=C1C(Cc2ccccc2)N2C(=O)CCN(C(=O)NCc3ccc(Cl)cc3)C2CN1Cc1cccc2ccccc12 (stereo not drawn) [IC-2-Cl]			14.4	lower IC50 than IC-2	more potent inhibitory effect	more potent anti-fibrosis effect	exerted a hepatocyte-inducing effect	more potent anti-tumor effect	more potent inhibitory effect
